Experiments:
[1] = tested on: mice; experiment: Acute hypobaric hypoxia: lifespan of mice at the height of 11,000 m; format: in vivo, mice (male, tetrahybrids)
Description: (§1) The antihypoxic effect of the compound according to the present invention was studied in comparison with pyracetam on various experimental models of hypoxic states in experiments on mice and rats. The compound according to the present invention and pyracetam were administered intraperitoneally in the form of an aqueous emulsion prepared with Tween-80.
The studies were carried out on a model of an acute hypobaric hypoxia.
An acute […] hypoxia was modelled in a flow-type barometric chamber at an ambient temperature of 17°-20° C. with absorption of carbon dioxide and water.
The test animals (male mice, tetrahybrids) with a mass of 15-22 g of the same generation were "lifted" (under simulation conditions) at the mean speed of 50 m/sec to the height of 11,000 m at which the lifespan (in minutes) for the same series of experiments was evaluated. Furthermore, the mice were discretely lifted at the same speed to the height of 10,000 m where they stayed for 1 minute and then to the height of 11,000 m, where they again were kept for 1 minute and so on, till their death for the determination of the height "ceiling", The animals' death was adjudicated by the occurrence of an agonal breathing against the background of convulsions. The total number of mice employed in the experiments was 200.
As the comparison preparation pracetam was used. The compound according to the present invention and pyracetam were administered one hour before the "lift".

[2] = tested on: mice; experiment: Acute histotoxic hypoxia (sodium nitroprusside): lifespan of mice; format: in vivo
Description: as §1
The studies were carried out using a model of an acute histotoxic hypoxia.
An acute histotoxic hypoxia was induced by way of a subcutaneous injection of sodium nitroprusside in the dose of 20 mg/kg. This mode of administration results in a 100% death of mice in 15-25 minutes after administration of the preparation. The lifespan of the mice was adjudicated after administration of sodium nitroprusside against the background of the test compounds (the compound according to the present invention and pyracetam) which was recorded by the arrest of breathing and heart. In this series of experiments 40 animals altogether were used.

[3] = tested on: rats' cerebral cortex; experiment: Acute repeating anoxia (asphyxial hypoxia): electrical activity of the cerebral cortex of rats; format: in vivo
Description: The studies were conducted on a model of an acute repeating anoxia.
The studies were carried out in experiments on rats with a mass of 180-200 g with nichrome electrodes in the brain (cerebral) cortex; after tracheostomy the animals were connected to the artificial-breathing apparatus. Anoxia was induced by repeatedly switching-off the breathing for 90, 120, 150 and 180 seconds with 10-minutes' intervals therebetween. Electrocardiogram and electrocorticogram were recorded. 53 rats altogether were used in the experiments. The antihypoxic activity of the compound according to the present invention in comparison with pyracetam was assessed by the following parameters:
I--time till the disappearance of a cortex electrical activity after discontinuation of oxygen supply;
II--time till the appearance of an electrocorticogram after renewal of breathing;
III--total time of electrical "silence" of the cortex
for each of the successive anoxiae.
The results of the experiments were statistically evaluated using Student's T-criterion.

[4] = tested on: rats; experiment: Learning speed and performing of electrodefensive conditioned reflex of avoidance; format: in vivo, rats (nondescript male)
Excerpt: The study of the compound according to the present invention for the speed of learning and performing the produced conditioned reflux was effected in experiments on rats using the method of electrodefensive conditioned reflexes of avoidance.
The study of the effect on the learning speed and fulfilment of the elaborated conditioned reflex was effected on 40 nondescript male rats with a mass of 150170 g (4 groups of 10 rats in each) by the method of electrodefensive conditioned reflexes. Conditioned reflexes were trained in all rats for ringing used as a conditional irritation signal supported by a non-conditional irritating agent--electric current (40-50 V) supplied to an electrified floor of a conditioned-reflex chamber. As the criterion for the elaboration of the conditioned reflex the rat's jump onto a stand in response to switching-on of a bell during the first 10 seconds after the beginning of the sound was assumed.
All rats, against the background of elaboration of conditioned reflexes, were administered over 3 weeks (5 times a week) with: the first group--the compound according to the present invention in the dose of 250 mg/kg; the second and third group--pyracetam in the doses of 500 and 1,000 mg/kg; and the fourth group--control--isotonic solution of sodium chloride. The administration was effected intraperiotoneally 24 hours before the experiment.

[5] = tested on: mice; experiment: Memory consolidation: conditioned reflex of passive avoidance in a two-chamber unit; format: in vivo, mice (nondescript male white)
Description: The study of the effect on processes of consolidation (fixation) of memory was carried out on 400 nondescript male white mice with a mass of 18-20 g using the procedure of a conditioned reflex of passive avoidance in a two-chamber unit, one of the chambers being darkened. In the bottom of the dark chamber an electrode floor is mounted, to which an electric current (50-60 V) can be applied.
Due to their biological specific features, mice prefer to stay in the dark chamber. At the end of the exposure lasting for 180 seconds of the residence of an animal in the dark chamber which, as a rule, actually takes place, an electric current is applied to the irritating device and a mouse is forced to leave its shelter.
Therefore, after a single-time training a conditioned reflex of passive avoidance is elaborated in mice. The resproduction of the effect which is evaluated by the laten period time (in seconds) of the visit to the dark chamber (or by the time of residence in the light chamber) was effected after 24 hours.
The compound according to the present invention and pyracetam were administered in doses of 200-250 mg/kg (pyracetam also in the dose of 1,000 mg/kg) intraperitoneally right after elaboration of the conditioned reflex.

[6] = 1st anoxia, 90 seconds, 1.000 mg/kg
[7] = 1st anoxia, 90 seconds, 250 mg/kg

In the case of `NC(=O)CN1CCCC1=O` [Pyracetam, 1-carbamidomethylpyrrolidone-2, reference compound], the “lifespan of mice at the height of 11,000 m” value ([1]; 100 mg/kg) is reported as “inactive”, the “lifespan of mice at the height of 11,000 m” value ([1]; 250 mg/kg) is reported as 6.16 ± 0.72 min and the “lifespan of mice at the height of 11,000 m, % (control = 100%)” value (from here on “lifespan … of 11,000 m, % (control = 100%)”) ([1]; 250 mg/kg) is reported as 101.0 ± 11.8%. The “lifespan of mice at the height of 11,000 m” value ([1]; 500 mg/kg) was 8.13 ± 2.43 min, the “lifespan … of 11,000 m, % (control = 100%)” value ([1]; 500 mg/kg) was 133.3 ± 39.9% and the “lifespan of mice at an acute histotoxic hypoxia” value ([2]; 1.000 mg/kg (= 1,000)) was 20.97 ± 1.31 min. For the same molecule, the “lifespan of mice at an acute histotoxic hypoxia, % (control = 100%)” value ([2]; 1.000 mg/kg (= 1,000)) was 107.6 ± 6.7%, the “lifespan of mice at an acute histotoxic hypoxia” value ([2]; 250 mg/kg) was “inactive” and the “lifespan of mice at an acute histotoxic hypoxia” value ([2]; 500 mg/kg) was 17.98 ± 1.49 min. For the same molecule, the “lifespan of mice at an acute histotoxic hypoxia, % (control = 100%)” value ([2]; 500 mg/kg) was 92.2 ± 7.62%, the “Number of animals with recovered electrocorticogram after the 4th anoxia” value ([3]; 1,000 mg/kg) was 14.3% and the “Number of animals with retained electrocorticogram after the 1st anoxia” value ([3]; 1,000 mg/kg) was 12.5%. For the same molecule, the “Number of animals with recovered electrocorticogram after the 4th anoxia” value ([3]; 1,000 mg/kg, listed as pyracetam) was 15%, the “I--time till the disappearance of a cortex electrical activity” value (“I--time till the disappearance” for short) [3, 6] was 76.7 ± 4.8 s and the “II--time till the appearance of an electrocorticogram after renewal of breathing” value (“II--time till the appearance” for short) [3, 6] was 5.3 ± 0.2 s. The “III--total time of electrical "silence" of the cortex” value (“III--total time” below) [3, 6] was 17.8 ± 4.9 s, the “I--time till the disappearance” value ([3]; 2nd anoxia (column 6; 120 seconds), 1.000 mg/kg) was 85.8 ± 7.3 s and the “II--time till the appearance” value ([3]; 2nd anoxia (column 7; 120 seconds), 1.000 mg/kg) was 21.8 ± 6.9 s. For the same molecule, the “III--total time” value ([3]; 2nd anoxia (column 8; 120 seconds), 1.000 mg/kg) was 53.3 ± 12.0 s, the “I--time till the disappearance” value ([3]; 3rd anoxia (column 9; 150 seconds), 1.000 mg/kg) was 95.0 ± 16.3 s and the “II--time till the appearance” value ([3]; 3rd anoxia (column 10; 150 seconds), 1.000 mg/kg) was 67.6 ± 42.I. The “III--total time” value ([3]; 3rd anoxia (column 11; 150 seconds), 1.000 mg/kg) was 131.2 ± 53.8 s, the “I--time till the disappearance” value ([3]; 4th anoxia (column 12; 180 seconds), 1.000 mg/kg) was 79.4 ± 23.8 s and the “effect on elaboration and fixation of a conditioned reflex” value ([4]; 1.000 mg/kg) was “effect similar to that produced by the compound according to the present inventuion in the dose of 250 mg/kg”. The “latent period of the conditioned reflex of avoidance” value ([4]; 1.000 mg/kg) was 0.98 ± 0.29 s, the “effect on elaboration and fixation of a conditioned reflex” value ([4]; 500 mg/kg) was “inactive” and the “extension of the latent period of the conditioned reflex of passive avoidance (control = 100%)” value ([5]; 1.000 mg/kg) was 33.7%. The “effect on the latent period of passive avoidance” value ([5]; doses lower than 1.000 mg/kg) was “inactive” and the “effect of extension of the latent period of the reflex of passive avoidance” value ([5]; only in the dose of 1.000 mg/kg, pyracetam, 1,000 mg/kg) was “the same effect”.
With `NC(=S)CN1CCCC1=S` [Compound of the present invention, 1-thiocarbamylmethylpyrrolidine-2-thione] the “lifespan of mice at the height of 11,000 m” value ([1]; 100 mg/kg) was 12.58 ± 8.64 min, the “lifespan … of 11,000 m, % (control = 100%)” value ([1]; 100 mg/kg) was 206.2 ± 59.7% and the “lifespan of mice at the height of 11,000 m” value ([1]; 250 mg/kg) was 19.97 ± 4.93 min. The “lifespan … of 11,000 m, % (control = 100%)” value ([1]; 250 mg/kg) was 327.4 ± 80.8%, the “lifespan of mice at the height of 11,000 m” value ([1]; 500 mg/kg) was 30.0 ± 0 min and the “lifespan … of 11,000 m, % (control = 100%)” value ([1]; 500 mg/kg) was 491.8 ± 0.0%. The “superiority to pyracetam in effect on the lifespan duration at 11,000 m” value ([1]; versus pyracetam) was 3-4 times, the “lifespan of mice at an acute histotoxic hypoxia” value ([2]; 250 mg/kg) was 24.2 ± 2.46 min and the “lifespan of mice at an acute histotoxic hypoxia, % (control = 100%)” value ([2]; 250 mg/kg) was 124.1 ± 12.6%. For the same molecule, the “lifespan of mice at an acute histotoxic hypoxia” value ([2]; 500 mg/kg) was 32.2 ± 4.95 min, the “lifespan of mice at an acute histotoxic hypoxia, % (control = 100%)” value ([2]; 500 mg/kg) was 165.5 ± 25.4% and the “superiority to pyracetam in effectiveness” value ([2]; 500 mg/kg versus pyracetam 500 and 1,000 mg/kg) was 1.5 times. The “Number of animals with retained electrocorticogram after the 1st anoxia” value ([3]; 250 mg/kg) was 44.0%, the “time of recovery of the functional capacity of the brain” value ([3]; 250 mg/kg) was “considerably reduced” and the “extension of the time till disappearance of an electrocorticogram” value ([3]; 250 mg/kg, especially first and second anoxiae) was ~2 times. For the same molecule, the “I--time till the disappearance” value [3, 7] was 84.3 ± 1.3 s, the “II--time till the appearance” value [3, 7] was 3.7 ± 1.5 s and the “III--total time” value [3, 7] was 8.9 ± 3.5 s. The “recovery of electrical activity of the brain after the 4th anoxia, effectiveness versus pyracetam” value ([3]; versus pyracetam) was 7 times, the “retention of the electrocorticogram after the first 90-seconds' anoxia, superiority to pyracetam” value ([3]; versus pyracetam 1.000 mg/kg) was 3 times and the “acceleration of elaboration and fixation of a conditioned reflex” value ([4]; 250 mg/kg) was “about 2 times”. For the same molecule, the “combinations of conditional and non-conditional irritation agents after which the reflex is fixed” value ([4]; 250 mg/kg) was 49-65 combinations, the “lowering of the latent period of the conditioned reflex as compared to the control” value ([4]; 250 mg/kg) was “more than 2 times” and the “latent period of the conditioned reflex of avoidance” value ([4]; 250 mg/kg, control 2.14±0.71 s) was 0.87 ± 0.32 s. The effective dose (learning and performing of conditioned response of avoidance in rats) ([4]; rats) was 250 mg/kg, the “effective dose lower than that of pyracetam” value ([5]; 200 mg/kg versus pyracetam 1.000 mg/kg) was 5 times and the minimal effective dose ([5]; Mus musculus, ip, 24 h, read-out: effective dose (memory consolidation)) was 200 mg/kg. For the same molecule, the “duration of the latent period of the reflex of passive avoidance” value ([5]; ip, 200 mg/kg, 24 h) was 136.2 ± 6.6 s and the “efficiency of the positive influence upon dose increasing” value ([5]; up to 500 mg/kg) was “does not grow”.

From patent US4839380A, “1-Thiocarbamoylmethylpyrrolidine-2-thione, medical compositions of, and anti-hypoxic and nootropic use thereof” (priority 1988, dated 1989)
